The record followed here is patent US8895499B2, “β-hairpin peptidomimetics” (Polyphor AG, priority 2010, dated 2014).

Peptide text beside a SMILES is read from it.

A short description of one data set: in vitro. The format is cell-based. Here is the method:
The cytotoxicity of the peptides to HELA cells (Acc57) and COS-7 cells (CRL-1651) was determined using the MTT reduction assay (T. Mossman, J. Immunol. Meth. 1983, 65, 55-63; M. V. Berridge, A. S. Tan, Arch. Biochem. Biophys. 1993, 303, 474-482). Briefly, the method was as follows: 4000 HELA cells/well and 3400 COS-7 cells/well were seeded and grown in 96-well microtiter plates for 24 h at 37° C. at 5% CO2. Thereafter, time zero (Tz) was determined by MTT reduction (see below). The supernatant of the remaining wells was discarded, and fresh medium and compounds in serial dilutions (12.5, 25 and 50 μg/mL, triplicates) were pipetted into the wells. After incubation of the cells for 48 h at 37° C. at 5% CO2 the supernatant was discarded again and 100 μL MTT reagent (0.5 mg/mL in RPMI1640 and DMEM, respectively)/well was added. Following incubation at 37° C. for 2-4 h the media were aspirated and the cells were spiked (100 μL isopropanol/well). The absorbance of the solubilized formazan was measured at 595 nm (OD595peptide). For each concentration averages were calculated from triplicates. The percentage of growth was calculated as follows: (OD595peptide-OD595Tz-OD595Empty well)/(OD595Tz-OD595Empty well)×100%. The GI50 (Growth Inhibition) concentrations were calculated for each peptide by using a trend line function for the concentrations (50, 25, 12.5 and 0 μg/mL), the corresponding percentages and the value 50, (=TREND (C50:C0%50:%0,50).

Data set [1] has as its system human red blood cells (hRBC). In kind it is cell-based. Conditions: red cells of human, 1 h. Here is the method:
The peptides were tested for their hemolytic activity against human red blood cells (hRBC). Fresh hRBC were washed three times with phosphate buffered saline (PBS) and centrifuged for 10 min at 2000×g. Compounds (100 μg/mL) were incubated with 20% hRBC (v/v) for 1 h at 37° C. and shaking at 300 rpm. The final erythrocyte concentration was approximately 0.9×10^9 cells/mL. A value of 0% and 100% cell lyses, respectively, was determined by incubation of hRBC in the presence of PBS containing 0.001% acetic acid and 2.5% Triton X-100 in H2O, respectively. The samples were centrifuged, the supernatants were 8-fold diluted in PBS buffer and the optical densities (OD) were measured at 540 nm. The 100% lyses value (OD540H2O) gave an OD50 of approximately 0.5-1.0.
Percent hemolysis was calculated as follows: (OD540peptide/OD540H2O)×100%.

The test system of another data set is Shigella boydii DSM 7532. As to conditions: Mueller-Hinton II broth + 0.02% BSA, 18-20 hours at 37° C. As for the experimental part: […] colony forming units (CFU)/mL. Aliquots (50 μl) of inoculate were added to 50 μl of MH broth+0.02% BSA containing the peptide in serial two-fold dilutions. The following microorganisms were used to determine antibiotic selectivity of the peptides: Bacillus subtilis DSM 10 and Shigella boydii DSM 7532.

What is called GI50 is the concentration at which growth is held to half of that of the control. Consider `CC[C@H](C)[C@@H]1NC(=O)[C@H](CCCNC(=N)N)NC(=O)[C@H](Cc2c[nH]c3ccccc23)NC(=O)[C@@H]2CCCN2C(=O)[C@H]2CCCN2C(=O)[C@H](CCCNC(=N)N)NC(=O)[C@H](CCCNC(=N)N)NC(=O)[C@H](CC(C)C)NC(=O)[C@H](CCN)NC(=O)[C@H](CCCCN)NC(=O)[C@H](CC(N)=O)NC(=O)[C@@H](CCCNC(=N)N)NC(=O)[C@H]([C@@H](C)CC)NC(=O)[C@H](CCCNC(=N)N)NC1=O` [Example 1] (HELM PEPTIDE1{W.R.I.R.I.[dR].N.K.[Dab].L.R.R.[dP].P}$PEPTIDE1,PEPTIDE1,1:R1-14:R2$$$V2.0), for which the GI50 at 48 h in the data set “in vitro” (African green monkey) and in the data set “in vitro” (human) was > 50 µg/mL each time. For the same compound, the “Hemolysis at 100 μg/mL” value in data set [1] is reported as 0.0%. Further, the “Shigella boydii DSM 7532 MIC” value with Shigella boydii DSM 7532 was found to be 8 µg/mL.

In the case of `CC[C@H](C)[C@@H]1NC(=O)[C@H](CCCNC(=N)N)NC(=O)[C@H](Cc2c[nH]c3ccccc23)NC(=O)[C@@H]2CCCN2C(=O)[C@H]2CCCN2C(=O)[C@H](CCC(N)=O)NC(=O)[C@H](CCCNC(=N)N)NC(=O)[C@H](CC(C)C)NC(=O)[C@H](CCCNC(=N)N)NC(=O)[C@H](CCCCN)NC(=O)[C@H](CC(N)=O)NC(=O)[C@@H](CCCNC(=N)N)NC(=O)[C@H]([C@@H](C)CC)NC(=O)[C@H](CCCNC(=N)N)NC1=O` [Example 2] (HELM PEPTIDE1{W.R.I.R.I.[dR].N.K.R.L.R.Q.[dP].P}$PEPTIDE1,PEPTIDE1,1:R1-14:R2$$$V2.0), the GI50 at 48 h in “in vitro” (African green monkey) and in the data set “in vitro” (human) was > 50 µg/mL each time. Further, in data set [1], the “Hemolysis at 100 μg/mL” value is reported as 0.0%. Further, the “Shigella boydii DSM 7532 MIC” value in the data set with Shigella boydii DSM 7532 came out at 4 µg/mL.

As for `CC[C@H](C)[C@@H]1NC(=O)[C@H](CCCNC(=N)N)NC(=O)[C@H](Cc2c[nH]c3ccccc23)NC(=O)[C@@H]2CCCN2C(=O)[C@H]2CCCN2C(=O)[C@H](C)NC(=O)[C@H](CCCNC(=N)N)NC(=O)[C@H](CC(N)=O)NC(=O)[C@H](CCCNC(=N)N)NC(=O)[C@H](CCCCN)NC(=O)[C@H](CC(N)=O)NC(=O)[C@@H](CCCNC(=N)N)NC(=O)[C@H]([C@@H](C)CC)NC(=O)[C@H](CCCNC(=N)N)NC1=O` [Example 3] (HELM PEPTIDE1{W.R.I.R.I.[dR].N.K.R.N.R.A.[dP].P}$PEPTIDE1,PEPTIDE1,1:R1-14:R2$$$V2.0), the concentration for 50% growth inhibition (GI50) at 48 h in “in vitro” (African green monkey) and in “in vitro” (human) was > 50 µg/mL each time. The “Hemolysis at 100 μg/mL” value in data set [1] turned out to be 0.1%. For the same compound, the “Shigella boydii DSM 7532 MIC” value in the data set with Shigella boydii DSM 7532 amounted to 16 µg/mL.

As to `CC[C@H](C)[C@@H]1NC(=O)[C@H](CCCNC(=N)N)NC(=O)[C@H](Cc2c[nH]c3ccccc23)NC(=O)[C@@H]2CCCN2C(=O)[C@H]2CCCN2C(=O)[C@H](C)NC(=O)[C@H](CCC(N)=O)NC(=O)[C@H](CC2CCCCC2)NC(=O)[C@H](CCCNC(=N)N)NC(=O)[C@H](CCC(N)=O)NC(=O)[C@H](CC(N)=O)NC(=O)[C@@H](CCCNC(=N)N)NC(=O)[C@H]([C@@H](C)CC)NC(=O)[C@H](CCCNC(=N)N)NC1=O` [Example 4] (HELM PEPTIDE1{W.R.I.R.I.[dR].N.Q.R.[Cha].Q.A.[dP].P}$PEPTIDE1,PEPTIDE1,1:R1-14:R2$$$V2.0), the concentration for 50% growth inhibition (GI50) at 48 h in “in vitro” (African green monkey) and in “in vitro” (human) was > 50 µg/mL in each case. In addition, the “Hemolysis at 100 μg/mL” value in data set [1] is reported as 0.8%. Further, the “Shigella boydii DSM 7532 MIC” value in the data set with Shigella boydii DSM 7532 is >16 µg/mL.

For the compound `CC[C@H](C)[C@@H]1NC(=O)[C@H](CCN)NC(=O)[C@H](Cc2c[nH]c3ccccc23)NC(=O)[C@@H]2CCCN2C(=O)[C@H]2CCCN2C(=O)[C@H](C)NC(=O)[C@H](CCC(N)=O)NC(=O)[C@H](CC(C)C)NC(=O)[C@H](CCCNC(=N)N)NC(=O)[C@H](CCC(N)=O)NC(=O)[C@H](CC(N)=O)NC(=O)[C@@H](CCCNC(=N)N)NC(=O)[C@H]([C@@H](C)CC)NC(=O)[C@H](CCCNC(=N)N)NC1=O` [Example 5] (HELM PEPTIDE1{W.[Dab].I.R.I.[dR].N.Q.R.L.Q.A.[dP].P}$PEPTIDE1,PEPTIDE1,1:R1-14:R2$$$V2.0), the GI50 at 48 h in the data set “in vitro” (African green monkey) and in the data set “in vitro” (human) was > 50 µg/mL each time. Moreover, the “Hemolysis at 100 μg/mL” value in data set [1] was 0.0%. Also, the “Shigella boydii DSM 7532 MIC” value in the data set on Shigella boydii DSM 7532 turned out to be 16 µg/mL.

Take `CC[C@H](C)[C@@H]1NC(=O)[C@H](CCCN)NC(=O)[C@H](Cc2c[nH]c3ccccc23)NC(=O)[C@@H]2CCCN2C(=O)[C@H]2CCCN2C(=O)[C@H](C)NC(=O)[C@H](CCC(N)=O)NC(=O)[C@H](CC(C)C)NC(=O)[C@H](CCCNC(=N)N)NC(=O)[C@H](CCC(N)=O)NC(=O)[C@H](CC(N)=O)NC(=O)[C@@H](CCCNC(=N)N)NC(=O)[C@H]([C@@H](C)CC)NC(=O)[C@H](CCCNC(=N)N)NC1=O` [Example 6] (HELM PEPTIDE1{W.[Orn].I.R.I.[dR].N.Q.R.L.Q.A.[dP].P}$PEPTIDE1,PEPTIDE1,1:R1-14:R2$$$V2.0): the GI50 at 48 h in the data set “in vitro” (African green monkey) and in the data set “in vitro” (human) was > 50 µg/mL throughout. Besides, in data set [1], the “Hemolysis at 100 μg/mL” value is 0.0%. The “Shigella boydii DSM 7532 MIC” value with Shigella boydii DSM 7532 was >16 µg/mL.

With `CC[C@H](C)[C@@H]1NC(=O)[C@H](CCCNC(=N)N)NC(=O)[C@H](Cc2c[nH]c3ccccc23)NC(=O)[C@@H]2CCCN2C(=O)[C@H]2CCCN2C(=O)[C@H](C)NC(=O)[C@H](CCC(N)=O)NC(=O)[C@H](CC(C)C)NC(=O)[C@H](CCCNC(=N)N)NC(=O)[C@H](CCC(N)=O)NC(=O)[C@H](CC(N)=O)NC(=O)[C@@H](CCCNC(=N)N)NC(=O)[C@H]([C@@H](C)CC)NC(=O)[C@H](CCN)NC1=O` [Example 7] (HELM PEPTIDE1{W.R.I.[Dab].I.[dR].N.Q.R.L.Q.A.[dP].P}$PEPTIDE1,PEPTIDE1,1:R1-14:R2$$$V2.0), the concentration for 50% growth inhibition (GI50) at 48 h in the data set “in vitro” (African green monkey) and in the data set “in vitro” (human) was > 50 µg/mL in each case. Also, the “Hemolysis at 100 μg/mL” value in data set [1] came to 0.0%. Also, the “Shigella boydii DSM 7532 MIC” value with Shigella boydii DSM 7532 was >16 µg/mL.

For `CC[C@H](C)[C@@H]1NC(=O)[C@H](CCCNC(=N)N)NC(=O)[C@H](Cc2c[nH]c3ccccc23)NC(=O)[C@@H]2CCCN2C(=O)[C@H]2CCCN2C(=O)[C@H](C)NC(=O)[C@H](CCC(N)=O)NC(=O)[C@H](CC(C)C)NC(=O)[C@H](CCCNC(=N)N)NC(=O)[C@H](CCC(N)=O)NC(=O)[C@H](CC(N)=O)NC(=O)[C@@H](CCCNC(=N)N)NC(=O)[C@H]([C@@H](C)CC)NC(=O)[C@H](CCCN)NC1=O` [Example 8] (HELM PEPTIDE1{W.R.I.[Orn].I.[dR].N.Q.R.L.Q.A.[dP].P}$PEPTIDE1,PEPTIDE1,1:R1-14:R2$$$V2.0), the GI50 at 48 h in “in vitro” (African green monkey) and in “in vitro” (human) was > 50 µg/mL in each case. Besides, the “Hemolysis at 100 μg/mL” value in data set [1] came out at 0.0%. Moreover, the “Shigella boydii DSM 7532 MIC” value with Shigella boydii DSM 7532 stood at 16 µg/mL.

As for `CC[C@H](C)[C@@H]1NC(=O)[C@H](CCCNC(=N)N)NC(=O)[C@H]([C@@H](C)CC)NC(=O)[C@H](CCCNC(=N)N)NC(=O)[C@H](Cc2c[nH]c3ccccc23)NC(=O)[C@@H]2CCCN2C(=O)[C@H]2CCCN2C(=O)[C@H](C)NC(=O)[C@H](CCC(N)=O)NC(=O)[C@H](CC(C)C)NC(=O)[C@H](CCCNC(=N)N)NC(=O)[C@H](CCC(N)=O)NC(=O)[C@H](CC(N)=O)NC(=O)[C@H](CCCN)NC1=O` [Example 9] (HELM PEPTIDE1{W.R.I.R.I.[Orn].N.Q.R.L.Q.A.[dP].P}$PEPTIDE1,PEPTIDE1,1:R1-14:R2$$$V2.0), the GI50 at 48 h in the data set “in vitro” (African green monkey) and in “in vitro” (human) was > 50 µg/mL throughout. In addition, the “Hemolysis at 100 μg/mL” value in data set [1] is 0.0%. The “Shigella boydii DSM 7532 MIC” value with Shigella boydii DSM 7532 was >16 µg/mL.

As for `CC[C@H](C)[C@@H]1NC(=O)[C@H](CCCNC(=N)N)NC(=O)[C@H]([C@@H](C)CC)NC(=O)[C@H](CCCNC(=N)N)NC(=O)[C@H](Cc2c[nH]c3ccccc23)NC(=O)[C@@H]2CCCN2C(=O)[C@H]2CCCN2C(=O)[C@H](C)NC(=O)[C@H](CCC(N)=O)NC(=O)[C@H](CC(C)C)NC(=O)[C@H](CCCNC(=N)N)NC(=O)[C@H](CCC(N)=O)NC(=O)[C@H](CC(N)=O)NC(=O)[C@H](CCN)NC1=O` [Example 10] (HELM PEPTIDE1{W.R.I.R.I.[Dab].N.Q.R.L.Q.A.[dP].P}$PEPTIDE1,PEPTIDE1,1:R1-14:R2$$$V2.0), the concentration for 50% growth inhibition (GI50) at 48 h in the data set “in vitro” (African green monkey) and in the data set “in vitro” (human) was > 50 µg/mL throughout. Also, in data set [1], the “Hemolysis at 100 μg/mL” value is 0.4%. Besides, the “Shigella boydii DSM 7532 MIC” value in the data set with Shigella boydii DSM 7532 is >16 µg/mL.
